# From BindingDB's records for doi:10.7270/Q2H70D5W (University of Pittsburgh, 2007)
# Target: Gag-Pol polyprotein (Human immunodeficiency virus type 1 group M subtype B (isolate HXB2), UniProt P04585)
# Experiment: HIV-1 RT RNase H inhibitor potency, dose response, biochemical, probe assessment (AID 652)
# Conditions: pH 8; 23 °C
row,Compound,IC50 [µM]
1,"CC(C)(C)c1ccc(-c2nnc3sc(-c4ccncc4)nn23)cc1 [3-(4-tert-butylphenyl)-6-(4-pyridinyl)[1,2,4]triazolo[3,4-b][1,3,4]thiadiazole]",6.18
2,"Cc1ccc(-n2c(N)c(C(=O)N3CCCCC3)sc2=S)cc1 [4-amino-3-(4-methylphenyl)-5-(1-piperidinylcarbonyl)-1,3-thiazole-2(3H)-thione]",2.3
3,"CCn1cc(C(=O)NCc2ccco2)c(=O)c2cc(S(=O)(=O)N3CCc4ccccc4C3)ccc21 [6-(3,4-dihydro-1H-isoquinolin-2-ylsulfonyl)-1-ethyl-N-(2-furanylmethyl)-4-oxo-3-quinolinecarboxamide]",9.32
4,"CC(C)CN(C(=O)COC(=O)c1ccc2c(c1)NC(=O)CS2)C1CCS(=O)(=O)C1 (stereo not given) [3-keto-4H-1,4-benzothiazine-6-carboxylic acid [2-[(1,1-diketothiolan-3-yl)-isobutyl-amino]-2-keto-ethyl] ester]",30.3
5,"Cc1ccc(-n2c(N)c(C(=O)N3CCN(C)CC3)sc2=S)cc1 [4-amino-3-(4-methylphenyl)-5-[(4-methyl-1-piperazinyl)carbonyl]-1,3-thiazole-2(3H)-thione]",> 50
6,Cc1cc(C)n2c(S)nnc2n1,8.1
7,Cn1ccnc1P(=S)(c1nccn1C)N1CCOCC1 [MLS000054793],11.8
8,"CCOC(=O)N1CCC2=C(C#N)C(=N)C(C#N)(C#N)[C@H](c3ccc(OC(C)C)c(OCC)c3)[C@H]2C1 [(8S,8aR)-6-amino-5,7,7-tricyano-8-(3-ethoxy-4-isopropoxy-phenyl)-1,3,8,8a-tetrahydroisoquinoline-2-carboxylic acid ethyl ester]",21.7
9,Cc1cccc(-n2c(N)c(C(=O)N3CCN(C)CC3)sc2=S)c1 [MLS000056753],45.1
10,"O=c1c(O)c(-c2ccc(O)cc2O)oc2cc(O)cc(O)c12 [2-(2,4-dihydroxyphenyl)-3,5,7-trihydroxychromen-4-one]",2.11
11,CCCCCCNC(=O)c1c(N)n(N=Cc2ccco2)c2nc3ccccc3nc12 [SMR000042381],2.77
12,"Nc1c(C(=O)N2CCOCC2)sc(=S)n1-c1ccccc1 [(4-amino-3-phenyl-2-sulfanylidene-1,3-thiazol-5-yl)-morpholin-4-ylmethanone]",4.97
13,O=S(=O)(NS1=CC=CCN1S(=O)(=O)c1ccccc1)c1ccccc1 (stereo not given) [MLS000081951],4.33
14,"Nc1nnc(CSCc2ccc(F)cc2)s1 [5-[(4-fluorophenyl)methylsulfanylmethyl]-1,3,4-thiadiazol-2-amine]",> 50
15,"O=C(Cn1c(=O)oc2cc(S(=O)(=O)N3CCCC3)ccc21)NC1CCCc2ccccc21 (stereo not given) [2-(2-keto-6-pyrrolidinosulfonyl-1,3-benzoxazol-3-yl)-N-tetralin-1-yl-acetamide]",19.8
16,"Cc1cccc(OCC(=O)Nc2cccc(-c3nnc(-c4ccccc4)o3)c2)c1C [2-(2,3-dimethylphenoxy)-N-[3-(5-phenyl-1,3,4-oxadiazol-2-yl)phenyl]acetamide]",3.92
17,CC(=O)c1cccc(NC(=O)c2cc(-c3ccc(C)cc3)on2)c1 [MLS000050755],13.3
18,"Cc1cccc(-c2nsc(SCC(=O)Nc3nccs3)n2)c1 [2-[[3-(3-methylphenyl)-1,2,4-thiadiazol-5-yl]sulfanyl]-N-(1,3-thiazol-2-yl)acetamide]",3.81
19,O=c1cc(CN2CCN(c3ccccc3)CC2)c2cc(O)c(-c3ccccc3)cc2o1 [6-hydroxy-7-phenyl-4-[(4-phenyl-1-piperazinyl)methyl]-1-benzopyran-2-one],5.01
20,COc1cccc(OC)c1-c1nn2c(-c3cc(-c4ccccc4)n[nH]3)nnc2s1 [MLS000083027],3.81

row,Compound,IC50 [µM]
1,Cc1sc(NC(=O)c2oc3ccccc3c2C)c(C#N)c1C [MLS000065828],10.8
2,CCCCCC#CCC#CCC#CCC#CCCCC(=O)O,0.794
3,"Cc1nc(-c2cccc(S(=O)(=O)N3CCOCC3)c2)cs1 [4-[3-(2-methyl-1,3-thiazol-4-yl)phenyl]sulfonylmorpholine]",5.96
4,CCOC(=O)CSc1nc2cc(C(=O)NCc3ccco3)ccc2c(=O)n1-c1ccc(F)cc1 [2-[[3-(4-fluorophenyl)-7-(2-furfurylcarbamoyl)-4-keto-quinazolin-2-yl]thio]acetic acid ethyl ester],13.1
5,COC(=O)c1ccccc1NC(=O)c1sc(=S)n(C)c1N [2-[(4-amino-3-methyl-2-thioxo-4-thiazoline-5-carbonyl)amino]benzoic acid methyl ester],4.43
6,"CCCN(CCC)S(=O)(=O)c1ccc(C(=O)Nc2nnc(-c3cccc(OC)c3)o2)cc1 [4-(dipropylsulfamoyl)-N-[5-(3-methoxyphenyl)-1,3,4-oxadiazol-2-yl]benzamide]",21.2
7,"c1ccc2c(c1)ncn2Cc1nnc2sc(-c3ccc4c(c3)OCO4)nn12 [3-(1-benzimidazolylmethyl)-6-(1,3-benzodioxol-5-yl)-[1,2,4]triazolo[3,4-b][1,3,4]thiadiazole]",1.23
8,"CCOc1cc(C2CC(=O)N3CN(C4CCCCC4)CSC3=C2C#N)ccc1O (stereo not given) [3-cyclohexyl-8-(3-ethoxy-4-hydroxy-phenyl)-6-keto-2,4,7,8-tetrahydropyrido[2,1-b][1,3,5]thiadiazine-9-carbonitrile]",19.5
9,"CN(C)c1ccc2c(c1)N=C(c1ccco1)OP2(=S)N1CCOCC1 (stereo not given) [3-(2-furanyl)-N,N-dimethyl-1-(4-morpholinyl)-1-sulfanylidene-2,4,1-benzoxazaphosphorin-6-amine]",1.66
10,"c1ccc(Cc2nn3c(Cn4cnc5ccccc54)nnc3s2)cc1 [1-[(6-benzyl[1,2,4]triazolo[3,4-b][1,3,4]thiadiazol-3-yl)methyl]-1H-benzimidazole]",2.2
11,CC(C)C1N=C2c3ccccc3N=C(SCC(=O)c3ccc(O)c(O)c3)N2C1=O (stereo not given) [MLS000094866],0.59
12,CC(C)c1ccc2oc(-c3ccc(NC(=O)c4nnc[nH]4)cc3)nc2c1,5.64
13,"Cc1ccc(Cn2c(SCC(C)C)nc3c2c(=O)[nH]c(=O)n3C)cc1 [3-methyl-7-[(4-methylphenyl)methyl]-8-(2-methylpropylthio)purine-2,6-dione]",1.71
14,COc1ccc2nc(O)c(CN(C3CCCCC3)C(c3nnnn3Cc3ccco3)C(C)C)cc2c1 (stereo not given) [3-[[cyclohexyl-[1-[1-(2-furanylmethyl)-5-tetrazolyl]-2-methylpropyl]amino]methyl]-6-methoxy-1H-quinolin-2-one],1.03
15,"C=CCn1c(=O)c(C(=O)Nc2nnc(C)s2)c(O)c2ccccc21 [1-allyl-2-hydroxy-4-keto-N-(5-methyl-1,3,4-thiadiazol-2-yl)quinoline-3-carboxamide]",16.8
16,CC1CCN(S(=O)(=O)c2ccc(NC(=O)Cn3nnc(-c4ccccc4)n3)cc2)CC1 [MLS000032813],22
17,CCCCC(CC)Cn1c2nc3ccccc3nc2c2c(=N)oc(C)nc21 (stereo not given) [MLS000098038],2.33
18,"COc1ccccc1N1CSC2=C(C#N)C(c3ccc(SC)cc3)CC(=O)N2C1 (stereo not given) [3-(2-methoxyphenyl)-8-(4-methylsulfanylphenyl)-6-oxidanylidene-2,4,7,8-tetrahydropyrido[2,1-b][1,3,5]thiadiazine-9-carbonitrile]",2.59
19,COc1ccc(-n2c(SCC(=O)N3CCCC3)nc3c([nH]c4ccccc43)c2=O)cc1 [SMR000018494],16.6
20,"c1c2c(cc3sc(N4CCOCC4)nc13)OCO2 [6-(4-morpholinyl)-[1,3]dioxolo[4,5-f][1,3]benzothiazole]",3.59
